PubChem BioAssay (NCI)
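Compound exposure: 48 hours, 5 concentrations, 96-well plates. TGI marks complete inhibition of growth.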

Assays:
Test in all cases: inhibition of tumour cell growth, NCI panel, 48 h
[1] = system: HCT-116 colon
[2] = system: HCT-15 colon
[3] = system: HOP-92 NSCLC
[4] = system: HT29 colon
[5] = system: KM12 colon
[6] = system: MDA-MB-435
[7] = system: MDA-N
[8] = system: NCI-H522 lung
[9] = system: OVCAR-3 ovarian
[10] = system: RPMI-8226 leukemia
[11] = system: SK-MEL-28 melanoma
[12] = system: SK-MEL-5 melanoma
[13] = system: SNB-75 CNS
[14] = system: SW-620 colon
[15] = system: T-47D breast
[16] = system: TK-10 renal
[17] = system: NCI-H460 lung
[18] = system: HCC-2998 colon

SMILES | TGI [1] | TGI [2] | TGI [3] | TGI [4] | TGI [5] | TGI [6] | TGI [7] | TGI [8] | TGI [9] | TGI [10] | TGI [11] | TGI [12] | TGI [13] | TGI [14] | TGI [15] | TGI [16] | TGI [17] | TGI [18]
COC(=O)c1cc(C)n2c1CS[C@@H]2c1ccccc1 | > 100 µM | > 100 µM | 76.8 µM | > 100 µM | > 100 µM | 79 µM | > 100 µM | 82 µM | > 100 µM | 84.5 µM | > 100 µM | 44.3 µM | 81.3 µM | > 100 µM | 93.1 µM | > 100 µM | – | –
CSc1c(CC(=O)O)n(Cc2ccccc2)c2ccccc12 | > 100 µM | > 100 µM | > 100 µM | > 100 µM | > 100 µM | > 100 µM | > 100 µM | > 100 µM | > 100 µM | > 100 µM | > 100 µM | > 100 µM | > 100 µM | > 100 µM | > 100 µM | > 100 µM | > 100 µM | –
COc1ccc(OC)c(C2CCCc3c2cnc2nc(N)nc(N)c32)c1 (configuration not stated) | > 100 µM | > 100 µM | > 100 µM | > 100 µM | > 100 µM | > 100 µM | > 100 µM | > 100 µM | > 100 µM | > 100 µM | > 100 µM | > 100 µM | 41 µM | > 100 µM | > 100 µM | > 100 µM | > 100 µM | –
Oc1ccc(-c2c3ccccc3c(-c3ccc(OCCBr)cc3)c3ccccc23)cc1 | > 100 µM | 77.4 µM | – | 43.2 µM | 83.6 µM | 42 µM | 59.8 µM | 74 µM | 33.7 µM | 63.5 µM | 51 µM | 36.3 µM | 60.9 µM | > 100 µM | > 100 µM | 99.2 µM | > 100 µM | > 100 µM
OC(c1ccc(F)cc1)C(F)(F)c1nc(-c2ccccc2)no1 (configuration not stated) | 36.7 µM | 63 µM | 91.9 µM | 33.4 µM | – | 35.6 µM | 62.7 µM | > 100 µM | 30.6 µM | – | > 100 µM | – | – | 58.9 µM | 68.3 µM | > 100 µM | 74.7 µM | –
CCCCCCc1cc2cc(C(=O)Nc3ccccc3F)c(=N)oc2cc1O | 20.6 µM | 22.3 µM | – | 62.9 µM | 19.7 µM | 10.2 µM | 24 µM | 16.8 µM | 25.9 µM | > 100 µM | 56.8 µM | 12.8 µM | – | > 100 µM | 12.4 µM | – | 97.8 µM | 48.1 µM
CC(=O)c1c2c(cc3c1CC1(Cc4cc5c(cc4C1=O)CCC5)C3)CCC2 (configuration not stated) | > 100 µM | > 100 µM | – | > 100 µM | > 100 µM | > 100 µM | > 100 µM | > 100 µM | > 100 µM | > 92.9 µM | > 100 µM | > 69.4 µM | > 100 µM | > 100 µM | > 100 µM | > 100 µM | > 100 µM | > 100 µM
